Measurements taken from the CheMixHub viscosity set.

Assay: xn = mol fraction of the nth substance listed

CCOC(C)=O + CCCCCCO
viscosity [mPa·s], 101.33 kPa
Conditions	x1 = 0.1142	x1 = 0.2247	x1 = 0.332	x1 = 0.436	x1 = 0.537	x1 = 0.635	x1 = 0.7301	x1 = 0.8227	x1 = 0.9125
298.15 K	2.832	2.006	1.472	1.128	0.9	0.736	0.618	0.539	0.47
303.15 K	2.481	1.775	1.334	1.027	0.824	0.692	0.574	0.506	0.448
308.15 K	2.181	1.582	1.2	0.942	0.76	0.591	0.541	0.475	0.419

CCOc1ccccc1 + CCCCCCO
viscosity [mPa·s], 101.3 kPa
Conditions	x1 = 0.1009	x1 = 0.1998	x1 = 0.2997	x1 = 0.3996	x1 = 0.5031	x1 = 0.6005	x1 = 0.7003	x1 = 0.8012	x1 = 0.9001
293.15 K	4.148	3.239	2.559	2.075	1.745	1.557	1.458	1.407	1.38
298.15 K	3.444	2.764	2.253	1.872	1.586	1.392	1.293	1.246	1.237
308.15 K	2.831	2.252	1.807	1.482	1.248	1.103	1.033	1.001	0.9927
318.15 K	2.142	1.72	1.388	1.153	0.9975	0.9133	0.8619	0.8367	0.8214

COC(=O)CC(C)=O + CCCCCCO
viscosity [mPa·s], 101.33 kPa
Conditions	x1 = 0.1036	x1 = 0.204	x1 = 0.3064	x1 = 0.4075	x1 = 0.5096	x1 = 0.6081	x1 = 0.7063	x1 = 0.806	x1 = 0.9023
298.15 K	3.185	2.588	2.204	1.947	1.749	1.609	1.521	1.473	1.478
303.15 K	2.76	2.257	1.932	1.72	1.547	1.442	1.364	1.33	1.34
308.15 K	2.409	1.989	1.711	1.527	1.387	1.302	1.238	1.211	1.222

CCOC(C)=O + CCCCCO
viscosity [mPa·s], 101.33 kPa
Conditions	x1 = 0.1	x1 = 0.2	x1 = 0.3	x1 = 0.4001	x1 = 0.5001	x1 = 0.6036	x1 = 0.7001	x1 = 0.8001	x1 = 0.9
298.15 K	2.349	1.693	1.282	1.011	0.829	–	0.6	0.521	0.472
303.15 K	2.079	1.53	1.161	0.924	0.766	0.644	0.561	0.486	0.446
308.15 K	1.843	1.367	1.053	0.848	0.681	0.599	0.525	0.459	0.392

CCOc1ccccc1 + CCCCCO
viscosity [mPa·s], 101.3 kPa
Conditions	x1 = 0.0998	x1 = 0.1989	x1 = 0.3012	x1 = 0.3999	x1 = 0.5004	x1 = 0.6001	x1 = 0.7013	x1 = 0.7997	x1 = 0.9021
293.15 K	3.281	2.682	2.196	1.866	1.631	1.494	1.42	1.379	1.371
298.15 K	2.882	2.372	1.953	1.646	1.423	1.299	1.245	1.232	1.228
308.15 K	2.152	1.785	1.486	1.256	1.121	1.032	0.9978	0.9914	0.9892
318.15 K	1.691	1.381	1.155	1.01	0.9175	0.8405	0.8318	0.8317	0.8269

COC(=O)CC(C)=O + CCCCCO
viscosity [mPa·s], 101.33 kPa
Conditions	x1 = 0.1031	x1 = 0.2056	x1 = 0.3072	x1 = 0.4083	x1 = 0.5091	x1 = 0.6099	x1 = 0.7075	x1 = 0.8063	x1 = 0.9019
298.15 K	2.467	2.053	1.796	1.637	1.52	1.439	1.408	1.408	1.449
303.15 K	2.156	1.809	1.588	1.453	1.356	1.294	1.268	1.275	1.313
308.15 K	1.903	1.606	1.419	1.3	1.223	1.175	1.156	1.164	1.201

CCOC(C)=O + CCCCO
298.15 K
Conditions	viscosity [mPa·s]
101 kPa, x2 = 0.12	0.48
101 kPa, x2 = 0.23	0.51
101 kPa, x2 = 0.34	0.578
101 kPa, x2 = 0.44	0.648
101 kPa, x2 = 0.54	0.79
101 kPa, x2 = 0.64	0.987
101 kPa, x2 = 0.73	1.165
101 kPa, x2 = 0.83	1.425
101 kPa, x2 = 0.91	1.815
101.33 kPa, x2 = 0.1338	0.468
101.33 kPa, x2 = 0.2522	0.517
101.33 kPa, x2 = 0.3724	0.599
101.33 kPa, x2 = 0.4809	0.691
101.33 kPa, x2 = 0.5952	0.838
101.33 kPa, x2 = 0.7033	1.041
101.33 kPa, x2 = 0.801	1.331
101.33 kPa, x2 = 0.8918	1.741

COC(=O)CC(C)=O + CCCCO
viscosity [mPa·s], 101.33 kPa
Conditions	x1 = 0.1022	x1 = 0.2039	x1 = 0.306	x1 = 0.4081	x1 = 0.511	x1 = 0.6074	x1 = 0.7044	x1 = 0.8051	x1 = 0.9038
298.15 K	1.886	1.628	1.465	1.378	1.328	1.311	1.321	1.368	1.436
303.15 K	1.669	1.447	1.308	1.235	1.197	1.183	1.197	1.211	1.302
308.15 K	1.487	1.301	1.195	1.118	1.09	1.08	1.093	1.131	1.19

OCC(O)CO + CCCCO
viscosity [mPa·s], 101.33 kPa
Conditions	x1 = 0.1003	x1 = 0.1997	x1 = 0.3003	x1 = 0.4007	x1 = 0.4996	x1 = 0.5995	x1 = 0.6994	x1 = 0.8004	x1 = 0.8999
298.15 K	4.05	6.403	10.09	18.38	37.92	83.21	180.7	338.3	541.7
308.15 K	3.014	4.518	6.896	11.9	21.63	44.15	82.38	144.5	231.5
318.15 K	2.324	3.356	4.9	8.136	13.77	24.56	41.13	68.13	105.3
